The source of these data is publication PMC11809512, “Looking for approved-medicines to be repositioned as anti-Trypanosoma cruzi agents. Identification of new chemotypes with good individual- or in combination-biological behaviours” (Memórias do Instituto Oswaldo Cruz, 2025).

Where two headings read alike, the source gives them in different places.

In one test the test system is epimastigote T. cruzi. Kind of test: Anti-epimastigote activity in modified milieu (excess Ca2+, glutamate or N-acetyl-L-cysteine, 1 mM). Format: cell-based. Particulars: Trypanosoma cruzi; for inhibition at 25 µM: read-out: Percentage of growth inhibition at 25 µM. The method, then: Three controls of untreated parasites and containing excess of calcium (II), glutamate or N-acetyl-L-cysteine (1 mM) were included. All treated and untreated wells contain no more than 0.4% of DMSO. Controls were used to calculate the relative proliferation in the treatment wells. Assays were performed in triplicate for all cases.

A further test deals with J774.1A macrophages. Kind of test: Cytotoxicity on macrophages (MTT, 48 h). Particulars: Macrophage, read-out: IC50,J774.1A. Format: cell-based. The method, then:
Cytotoxicity - J774.1A macrophages (ATCC® TIB67™) were grown in DMEM milieu supplemented with 10% […] FBS, 1% L-glutamine, 1% streptomycin, and 100 units/mL penicillin. Cell viability was assessed using the MTT protocol. […] Cells were grown in 96-well plates (5 × 10^4 cells/well) for 24 h. Cultures were carried out at 37 °C in a humidified atmosphere with 5% CO2 and incubated with the compounds at different concentrations for 48 h. After incubation, the milieu was removed, and the cells were treated with 100 μL of 0.4 mg/mL MTT for 4 h at 37 °C. Subsequently, 100 μL of DMSO was added to the mixture. The solubilised formazan product was quantified through absorbance measurements at 570 nm. The absorbance values were transformed to the percentage of cytotoxicity compared to the negative controls.

The subject of test [1] is epimastigotes of T. cruzi (Tulahuen 2 strain, DTU Tc VI). Kind of test: Screening / IC50 against T. cruzi epimastigotes (growth, absorbance 610 nm, 5 days). The class given is cell-based, Trypanosoma cruzi. Particulars: for SIepi: SIepi = IC50,J774.1A/IC50,epi; for IC50: Trypanosoma cruzi, 120 h, read-out: IC50,epi; for anti-epimastigote activity in the initial screening (in words): 25 µM or 100 µg/mL, cut-off more than 65% inhibition. On the procedure: (§1) Screening - Entities, dissolved in dimethylsulfoxide (DMSO, Sigma) before use and then diluted in a culture milieu, were firstly tested against epimastigotes of T. cruzi [Tulahuen 2 strain, discrete typing unit (DTU) Tc VI] as previously described.[14] ^, [15] […] The system was incubated at 28 °C for five days and to assess cell proliferation, cell density was monitored at 610 nm at time 0 (Ap0) and five days post incubation (Ap). All measures were normalised to the control population at day 0 (Ac0) and at day 5 (Ac5). Control parasites were incubated with 0.4% DMSO, corresponding to the highest DMSO concentration of the well. The percentage of parasite inhibition was calculated as: […]. This assay was independently performed three times. […] Secondly,[16] Vero (ATCC® CCL-81™) cells were infected with T. cruzi metacyclic trypomastigotes from 15 days old Dm28 clone (DTU Tc I) epimastigote cultures. Subsequently, the trypomastigotes harvested from this culture were used to infect further Vero cell cultures at a multiplicity of infection of 10. These trypomastigote-infected Vero cell cultures were incubated at 37 °C in humidified air and 5% CO2 for five to seven days. After this time, cellular trypomastigotes were collected from the supernatant by centrifugation at 3,000 × g for 10 min. The trypomastigote-containing pellets were resuspended in RPMI media supplemented with 5% foetal bovine serum (FBS) and penicillin/streptomycin at a final density of 1 × 10^8 parasites/mL. For viability assays, 1 × 10^7 trypomastigotes were seeded in black 96 well plates in RPMI and incubated with increasing concentrations of the entities under study for 24 h. Viability was analysed using resazurin, which is reduced to highly fluorescent resorufin. 50 μL of resazurin solution (2 mg/mL in RPMI) were added to each well and incubated for 4 h at 37 °C. Fluorescence (excitation 530 nm / emission 590 nm) was measured in a Thermo Scientific Varioskan® Flash Multimode plate spectrofluorimeter instrument. Untreated parasites were used as negative controls (100% of viability). […] Thirdly, for infection persistence analysis,[16] trypomatigotes Vero cells (at a multiplicity of infection of 10) growing in RPMI were trypsinised and replated in 24-wll plates (2-3 × 10^5 cells/well). […] After 24 h of incubation, cells were washed with phosphate-buffered saline (PBS), fixed with 4% paraformaldehyde, and stained with DAPI. Infected cells and amastigotes per cell were counted from randomly selected fields (400 cells per conditions). Two independent infections with trypomastigotes pre-treated with entities by two independent technicians were analysed. The percentage of uninfected Vero cells over total cells, as well as the percentage of decrease in the number of amastigotes per infected cell, was counted for each studied compound concentration tested and normalised against control untreated parasites.

Test [2] concerns amastigote forms of T. cruzi in Vero cells (Dm28 clone, DTU Tc I). The class given is cell-based. Particulars: 24 h. The method, then:
as §1
The number of amastigotes per cell as well as the number of infected cells was then counted.

The test system of test [3] is Trypanosoma cruzi trypomastigotes (Dm28c). Kind of test: Trypomastigote viability (resazurin, 24 h). The class given is cell-based. Particulars: fixed concentrations, Fig. 1. On the procedure: Screening - Entities, dissolved in dimethylsulfoxide (DMSO, Sigma) before use and then diluted in a culture milieu, were firstly tested against epimastigotes of T. cruzi [Tulahuen 2 strain, discrete typing unit (DTU) Tc VI] as previously described.[14] ^, [15] […] The system was incubated at 28 °C for five days and to assess cell proliferation, cell density was monitored at 610 nm at time 0 (Ap0) and five days post incubation (Ap). All measures were normalised to the control population at day 0 (Ac0) and at day 5 (Ac5). Control parasites were incubated with 0.4% DMSO, corresponding to the highest DMSO concentration of the well. The percentage of parasite inhibition was calculated as: (Ap - Ap0)/(Ac5 - Ac0) × 100. This assay was independently performed three times. […] Secondly,[16] Vero (ATCC® CCL-81™) cells were infected with T. cruzi metacyclic trypomastigotes from 15 days old Dm28 clone (DTU Tc I) epimastigote cultures. […] Viability was analysed using resazurin, which is reduced to highly fluorescent resorufin. […] Fluorescence (excitation 530 nm / emission 590 nm) was measured in a Thermo Scientific Varioskan® Flash Multimode plate spectrofluorimeter instrument. […] Infected cells and amastigotes per cell were counted from randomly selected fields (400 cells per conditions). Two independent infections with trypomastigotes pre-treated with entities by two independent technicians were analysed. […]
In general terms: Resazurin is reduced to fluorescent resorufin, in cell work by metabolically active cells.

Where [4] appears, read: epimastigotes Tulahuen 2, 5 days.
Where [5] appears, read: Ca2+ 1 mM, read-out: IC50,epi with excess of Ca2+.

As to `CC1CS(=O)(=O)CCN1/N=C/c1ccc([N+](=O)[O-])o1` (centres unmarked) [Nfx, nifurtimox], the inhibition at 25 µM stood at 61% with epimastigote T. cruzi (with Ca2+ (1 mM)); 55% with epimastigote T. cruzi (with Glu (1 mM)); 20% in the test with epimastigote T. cruzi (with NAC (1 mM)); 70% in the test with epimastigote T. cruzi (without Ca2+); 70% with epimastigote T. cruzi (without Glu); 74% in the test on epimastigote T. cruzi (without NAC).
With `CCOC(=O)N1CCC(=C2c3ccc(Cl)cc3CCc3cccnc32)CC1` [Lorat, Loratadine], the 50% inhibitory concentration (IC50) in the test with J774.1A macrophages (macrophages, MTT) stood at 7.8 µM; in test [1] (setting [4]), 0.95 µM. The compound further displayed an SIepi in test [1] of 8.21.
Consider `CCN(CC)CCNC(=O)c1c(C)[nH]c(/C=C2\C(=O)Nc3ccc(F)cc32)c1C` [Sun, Sunitinib], for which the “anti-epimastigote activity in the initial screening (in words)” value in test [1] is “did not display anti-T. cruzi activities in the assayed conditions”.
In the case of `CN(C/C=C/C#CC(C)(C)C)Cc1cccc2ccccc12` [Terb, Terbinafine], the “%dnac: percentage of decrease in the number of amastigotes per treated Vero cell respect to control” value was 20% in test [2] (6.25 µM) and 23% in test [2] (12.5 µM). The “%ucell: percentage of uninfected Vero cells with amastigotes respect to untreated parasites” value in test [2] (6.25 µM) is 4%; in test [2] (12.5 µM), 15%. Further, the IC50 in the test on J774.1A macrophages (macrophages, MTT) came to 65 µM; in test [1] (setting [4]), 21.4 µM. In addition, in test [1], the SIepi was 3.05.
On to `C[C@H]1c2cccc(O)c2C(=O)C2=C(O)[C@]3(O)C(=O)C(C(N)=O)=C(O)[C@@H](N(C)C)[C@@H]3[C@@H](O)[C@@H]21` [Dox, Doxycycline], for which the IC50 worked out at 23.8 µM in the test with J774.1A macrophages (macrophages, MTT) and 19.1 µM in test [1] (setting [4]). For the same compound, in test [1], the SIepi was determined as 1.24.
As for `NC(=O)NN=C1C=Cc2ccccc2C1=O` [Naft, Naftazone], the results for the “%dnac: percentage of decrease in the number of amastigotes per treated Vero cell respect to control” value in test [2] (6.25 µM), in test [2] (12.5 µM) and in test [2] (25 µM) were 0%, 0% and 24%, respectively. The figures for the “%ucell: percentage of uninfected Vero cells with amastigotes respect to untreated parasites” value in test [2] (6.25 µM), in test [2] (12.5 µM) and in test [2] (25 µM) were 0%, 0% and 15%, respectively. Also, the IC50 in the test on J774.1A macrophages (macrophages, MTT) was found to be 102 µM; in test [1] (setting [4]) it was 0.75 µM; in the test on epimastigote T. cruzi (setting [5]), 2.8 µM; with epimastigote T. cruzi (NAC 1 mM, read-out: IC50,epi with excess of N-acetyl-L-cysteine (NAC)), 1.9 µM; with epimastigote T. cruzi (glutamate 1 mM, read-out: IC50,epi with excess of glutamate), 13.5 µM. This compound also had an SIepi in test [1] of 135.7. The “anti-trypomastigote activity (in words)” value in test [3] is “excellent cytotoxic agent for this form of the parasite”.
Regarding `CC(=O)N1CCN(c2ccc(OCC3COC(Cn4ccnc4)(c4ccc(Cl)cc4Cl)O3)cc2)CC1` (centres unmarked) [Ket, Ketoconazole], the IC50 turned out to be 13.3 µM in the test on J774.1A macrophages (macrophages, MTT) and 5.13 µM in test [1] (setting [4]). This compound also displayed an SIepi in test [1] of 2.60.
`NCC1(CC(=O)O)CCCCC1` [Gaba, Gabapentin]: the IC50 was 19.1 µM in the test on J774.1A macrophages, 6.01 µM in test [1] (TULAHUEN), > 25 µM in the test with epimastigote T. cruzi (read-out: IC50,epi with excess of Ca2+) and > 25 µM in the test on epimastigote T. cruzi (read-out: IC50,epi with excess of glutamate).
Consider `CCC(C)(C)C(=O)O[C@H]1C[C@@H](C)C=C2C=C[C@H](C)[C@H](CC[C@@H]3C[C@@H](O)CC(=O)O3)[C@H]21` [Simv, Simvastatin], for which the IC50 was 6.5 µM in the test on J774.1A macrophages (macrophages, MTT) and 7.36 µM in test [1] (setting [4]). Further, the SIepi in test [1] was 0.88.
As for `CCOC(=O)C1=C(COCCN)NC(C)=C(C(=O)OC)C1c1ccccc1Cl` (centres unmarked) [Amlod, Amlodipine], the half-maximal inhibitory concentration (IC50) in the test with J774.1A macrophages (macrophages, MTT) is 95.7 µM; in test [1] (setting [4]), 13.7 µM; with epimastigote T. cruzi (setting [5]), ~25 µM. For the same compound, in test [1], the SIepi is 7.00.
With `O=C(Cn1ccnc1[N+](=O)[O-])NCc1ccccc1` [Bnz, Benznidazole], the IC50 in the test on J774.1A macrophages (macrophages, MTT) came out at 247 µM; in test [1] (setting [4]), 4.93 µM. The SIepi in test [1] was found to be 50.2.
In the case of `C#Cc1cccc(Nc2ncnc3cc(OCCOC)c(OCCOC)cc23)c1` [Erlo, Erlotinib], the “anti-epimastigote activity in the initial screening (in words)” value in test [1] is “did not display anti-T. cruzi activities in the assayed conditions”.
Take `CS(=O)(=O)CCNCc1ccc(-c2ccc3ncnc(Nc4ccc(OCc5cccc(F)c5)c(Cl)c4)c3c2)o1` [Lapa, Lapatinib]: the IC50 was 7.6 µM with J774.1A macrophages (macrophages, MTT) and 16.6 µM in test [1] (setting [4]).
As for `O=C1CN(/N=C/c2ccc([N+](=O)[O-])o2)C(=O)N1` [Nitrof, Nitrofurantoin], the IC50 in the test with J774.1A macrophages (macrophages, MTT) was 61.1 µM; in test [1] (setting [4]), 13.3 µM. In test [1], this compound gave an SIepi of 4.59.

For orientation: inhibition means the relative decrease from the control value, in per cent. As a reminder, the IC50 is the concentration that gives 50% inhibition.
